PubChem BioAssay AID1259407 (Chemical Carcinogenesis Research Information System (CCRIS), 2018)
Calls of active or inactive are those of the source. No rule for the calls is given here.

System: CCRIS mutagenicity, Ames/micronucleus/aberration tests
Experiment: CCRIS mutagenicity studies
[1] = Test System: AMES SALMONELLA TYPHIMURIUM, Strain/Indicator: TA98, Metabolic Activation: NONE, Method: STANDARD PLATE
[2] = Test System: AMES SALMONELLA TYPHIMURIUM, Strain/Indicator: TA98, Metabolic Activation: RAT, LIVER, S-9, AROCLOR 1254, Method: STANDARD PLATE
[3] = Test System: AMES SALMONELLA TYPHIMURIUM, Strain/Indicator: TA100, Metabolic Activation: NONE, Method: STANDARD PLATE
[4] = Test System: AMES SALMONELLA TYPHIMURIUM, Strain/Indicator: TA100, Metabolic Activation: RAT, LIVER, S-9, AROCLOR 1254, Method: STANDARD PLATE
[5] = Test System: AMES SALMONELLA TYPHIMURIUM, Strain/Indicator: TA1538, Metabolic Activation: NONE, Method: STANDARD PLATE
[6] = Test System: AMES SALMONELLA TYPHIMURIUM, Strain/Indicator: TA1538, Metabolic Activation: RAT, LIVER, S-9, AROCLOR 1254, Method: STANDARD PLATE

Which mutagenic call [1] does the source give for CCOc1cc(N=Nc2ccccc2)ccc1N=Nc1c(S(=O)(=O)O)cc2ccc(N)cc2c1O here?
Its mutagenic call is “inactive; negative”.

And the mutagenic call [2]?
The mutagenic call was “active; positive”.

And the mutagenic call [3]?
The mutagenic call was “inactive; negative”.

And the mutagenic call [4]?
The mutagenic call was “active; positive”.

What about the mutagenic call [5] of the same molecule?
Its mutagenic call is “inactive; negative”.

And the mutagenic call [6]?
The mutagenic call was “active; positive”.

What does the source list for O=C(/C=C/c1ccc([N+](=O)[O-])cc1)c1ccc([N+](=O)[O-])cc1?
mutagenic call [1]: active; positive; mutagenic call [2]: inactive; negative; mutagenic call [3]: inactive; negative; mutagenic call [4]: inactive; negative

CC(C)C(=O)Nc1ccccc1 was tested. Which mutagenic call [3] did it give?
The mutagenic call was “inactive; negative”.

For C=C(C)OC(C)=O, which mutagenic call (Test System: AMES SALMONELLA TYPHIMURIUM, Strain/Indicator: TA98, Metabolic Activation: HAMSTER, LIVER, S-9, AROCLOR 1254, Method: STANDARD PLATE) is on record?
Its mutagenic call is “inactive; negative”.

What about the mutagenic call [1] of the same molecule?
The mutagenic call was “inactive; negative”.

And the mutagenic call [2]?
Its mutagenic call is “inactive; negative”.

What about the mutagenic call (Test System: AMES SALMONELLA TYPHIMURIUM, Strain/Indicator: TA100, Metabolic Activation: HAMSTER, LIVER, S-9, AROCLOR 1254, Method: STANDARD PLATE) of the same molecule?
Its mutagenic call is “inactive; negative”.

What about the mutagenic call [3] of the same molecule?
The mutagenic call was “inactive; negative”.

And the mutagenic call [4]?
Its mutagenic call is “inactive; negative”.

And the mutagenic call (Test System: AMES SALMONELLA TYPHIMURIUM, Strain/Indicator: TA1535, Metabolic Activation: HAMSTER, LIVER, S-9, AROCLOR 1254, Method: STANDARD PLATE)?
Its mutagenic call is “inactive; negative”.

And the mutagenic call (Test System: AMES SALMONELLA TYPHIMURIUM, Strain/Indicator: TA1535, Metabolic Activation: NONE, Method: STANDARD PLATE)?
The mutagenic call was “inactive; negative”.

And the mutagenic call (Test System: AMES SALMONELLA TYPHIMURIUM, Strain/Indicator: TA1535, Metabolic Activation: RAT, LIVER, S-9, AROCLOR 1254, Method: STANDARD PLATE)?
Its mutagenic call is “inactive; negative”.

And the mutagenic call (Test System: AMES SALMONELLA TYPHIMURIUM, Strain/Indicator: TA1537, Metabolic Activation: HAMSTER, LIVER, S-9, AROCLOR 1254, Method: STANDARD PLATE)?
The mutagenic call was “inactive; negative”.

What about the mutagenic call (Test System: AMES SALMONELLA TYPHIMURIUM, Strain/Indicator: TA1537, Metabolic Activation: NONE, Method: STANDARD PLATE) of the same molecule?
Its mutagenic call is “inactive; negative”.

And the mutagenic call (Test System: AMES SALMONELLA TYPHIMURIUM, Strain/Indicator: TA1537, Metabolic Activation: RAT, LIVER, S-9, AROCLOR 1254, Method: STANDARD PLATE)?
The mutagenic call was “inactive; negative”.

And the mutagenic call (Test System: AMES SALMONELLA TYPHIMURIUM, Strain/Indicator: TA1538, Metabolic Activation: HAMSTER, LIVER, S-9, AROCLOR 1254, Method: STANDARD PLATE)?
Its mutagenic call is “inactive; negative”.

And the mutagenic call [5]?
The mutagenic call was “inactive; negative”.

What about the mutagenic call [6] of the same molecule?
The mutagenic call was “inactive; negative”.

And the mutagenic call (Test System: Mouse lymphoma, Strain/Indicator: L5178Y (tk+/tk-), Metabolic Activation: None, Method: Suspension/plate)?
The mutagenic call was “active; inconclusive (previously evaluated positive)”.

And the mutagenic call (Test System: Mouse lymphoma, Strain/Indicator: L5178Y (tk+/tk-), Metabolic Activation: Rat, liver, S-9, Aroclor 1254, Method: Suspension/plate)?
The mutagenic call was “inactive; negative”.

O=Nc1nc[nH]c1-c1ccccc1 was tested. Which mutagenic call [3] did it give?
The mutagenic call was “active; positive”.

Which mutagenic call (Test System: AMES SALMONELLA TYPHIMURIUM, Strain/Indicator: TA100, Metabolic Activation: MOUSE, LIVER, S-9, AROCLOR 1254, Method: STANDARD PLATE) does the source give for O=C(NCc1ccccc1)C(Br)c1ccccc1 (stereo not given) here?
The mutagenic call was “inactive; negative”.

What about the mutagenic call [3] of the same molecule?
Its mutagenic call is “inactive; negative”.

c1ccc2c(c1)Cc1ccccc1-2 was tested. Which mutagenic call (End Point: IN VITRO CHROMOSOMAL ABERRATIONS, Test System: CHINESE HAMSTER LUNG (CHL) CELLS, Metabolic Activation: NONE) did it give?
Its mutagenic call is “inactive; negative”.

What about the mutagenic call (End Point: IN VITRO CHROMOSOMAL ABERRATIONS, Test System: CHINESE HAMSTER LUNG (CHL) CELLS, Metabolic Activation: RAT, LIVER, S-9, KC-400) of the same molecule?
The mutagenic call was “active; positive”.

What about the mutagenic call (End Point: IN VITRO MICRONUCLEUS, Test System: CHO CELLS, Metabolic Activation: RAT, LIVER, S-9, AROCLOR 1254) of the same molecule?
Its mutagenic call is “inactive; negative”.

And the mutagenic call (Test System: AMES SALMONELLA TYPHIMURIUM, Strain/Indicator: TA97, Metabolic Activation: NONE, Method: STANDARD PLATE)?
The mutagenic call was “inactive; negative”.

What about the mutagenic call (Test System: AMES SALMONELLA TYPHIMURIUM, Strain/Indicator: TA97, Metabolic Activation: RAT, LIVER, S-9, PCB, Method: STANDARD PLATE) of the same molecule?
Its mutagenic call is “inactive; negative”.

What about the mutagenic call [1] of the same molecule?
The mutagenic call was “inactive; negative”.

And the mutagenic call (Test System: AMES SALMONELLA TYPHIMURIUM, Strain/Indicator: TA98, Metabolic Activation: RAT, LIVER, S-9, PCB, Method: STANDARD PLATE)?
Its mutagenic call is “inactive; negative”.

What about the mutagenic call [3] of the same molecule?
The mutagenic call was “inactive; negative”.

And the mutagenic call (Test System: AMES SALMONELLA TYPHIMURIUM, Strain/Indicator: TA100, Metabolic Activation: RAT, LIVER, S-9, PCB, Method: STANDARD PLATE)?
Its mutagenic call is “inactive; negative”.

And the mutagenic call (Test System: MOUSE LYMPHOMA, Strain/Indicator: L5178Y (TK+/TK-), Metabolic Activation: NONE, Method: SUSPENSION/PLATE)?
The mutagenic call was “active; positive”.

What about the mutagenic call (Test System: MOUSE LYMPHOMA, Strain/Indicator: L5178Y (TK+/TK-), Metabolic Activation: RAT, LIVER, S-9, AROCLOR 1254, Method: SUSPENSION/PLATE) of the same molecule?
Its mutagenic call is “active; positive”.

And the mutagenic call (Test System: UDS RAT HEPATOCYTES, Strain/Indicator: BROMODEOXYURIDINE INCORP, Metabolic Activation: NONE, Method: FLOW CYTOMETRIC ANALYSIS)?
Its mutagenic call is “inactive; negative”.

How did the mutagenic call (Test System: AMES SALMONELLA TYPHIMURIUM, Strain/Indicator: TA100, Metabolic Activation: RAT, LIVER, MICROSOMES, AROCLOR 1254, Method: STANDARD PLATE) turn out when c1ccc2cc3c(ccc4c5ccccc5ccc34)cc2c1 was run?
The mutagenic call was “inactive; negative”.

And the mutagenic call (Test System: AMES SALMONELLA TYPHIMURIUM, Strain/Indicator: TA100, Metabolic Activation: RAT, LIVER, MICROSOMES, BENZO[B]CHRYSENE, Method: STANDARD PLATE)?
The mutagenic call was “inactive; negative”.

What about the mutagenic call (Test System: AMES SALMONELLA TYPHIMURIUM, Strain/Indicator: TA100, Metabolic Activation: RAT, LIVER, MICROSOMES, Method: STANDARD PLATE) of the same molecule?
The mutagenic call was “inactive; negative”.

How did the mutagenic call (Test System: AMES SALMONELLA TYPHIMURIUM, Strain/Indicator: TA100, Metabolic Activation: S-9, Method: STANDARD PLATE) turn out when CCCCC(=O)N=c1sn(C(=O)CCCC)c2ccc([N+](=O)[O-])cc12 was run?
Its mutagenic call is “active; positive”.

How did the mutagenic call [1] turn out when CCc1ccc2c3c(cccc13)-c1ccccc1-2 was run?
Its mutagenic call is “inactive; negative”.

And the mutagenic call (Test System: AMES SALMONELLA TYPHIMURIUM, Strain/Indicator: TA98, Metabolic Activation: RAT, LIVER, S-9, AROCLOR 1254 (4%), Method: STANDARD PLATE)?
Its mutagenic call is “inactive; negative”.

For O=[N+]([O-])c1ccc2c(c1)NCC2, which mutagenic call [1] is on record?
Its mutagenic call is “active; positive”.
